Measurements reported in patent US20230339970A1, “CASEIN KINASE 1 DELTA MODULATORS” (priority 2020, published 2023).

Legend:
[1] = biological target: T1, human recombinant GST cleaved CSNK1D (Homo sapiens, UniProt P48730); assay: Purified Enzyme Assay (ADP-Glo CSNK1D Kinase Assay); type: biochemical; details: 2 nM CSNK1D; peptide substrate 150 μM; ATP 20 μM; 45 minutes at room temperature
T1 construct: GST (cleaved yes); purchased University of Dundee clone DU 19064
Method in brief: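 Percent activity derived from ADP-Glo quantification of ADP produced. Reactions: compound dose-response with human recombinant GST-cleaved CSNK1D, ATP and substrate peptide PLSRTL-pS-VASLPGL, incubated 45 min at room temperature.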

[2] = biological target: T2, human CSNK1D (Homo sapiens, UniProt P48730); assay: Whole Cell nBRET CSNK1D Binding Assay; details: living CHO cells stably expressing human CSNK1D tagged with nanoluciferase; NanoBret tracer 130 nM; 2 hours at 37 C
T2 construct: expressed in transfected cells
T2 sequence (P48730 whole entry): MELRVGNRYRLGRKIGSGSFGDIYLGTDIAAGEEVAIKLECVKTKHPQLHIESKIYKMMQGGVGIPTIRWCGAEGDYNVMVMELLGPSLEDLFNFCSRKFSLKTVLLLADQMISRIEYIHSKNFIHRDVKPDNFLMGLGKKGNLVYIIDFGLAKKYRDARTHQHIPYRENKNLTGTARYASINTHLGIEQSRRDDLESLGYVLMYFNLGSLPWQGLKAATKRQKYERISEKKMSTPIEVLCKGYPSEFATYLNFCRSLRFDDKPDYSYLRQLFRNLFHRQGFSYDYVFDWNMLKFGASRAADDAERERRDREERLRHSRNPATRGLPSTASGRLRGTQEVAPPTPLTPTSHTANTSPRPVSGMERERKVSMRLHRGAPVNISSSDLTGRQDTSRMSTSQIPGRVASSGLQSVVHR

T1 sequence (P48730 whole entry): as above

Row | IC50 [1] [nM] | IC50 [2] [nM] | Compound
1 | 2 | 22 | Fc1ccc(-c2nn3c(c2-c2c(F)cnc4[nH]ncc24)CCC2(C3)CC2(F)F)nc1 (single isomer, unassigned) [Example 330, (*R)-2,2-Difluoro-3′-(5-fluoro-1H-pyrazolo[3,4-b]pyridin-4-yl)-2′-(5-fluoropyridin-2-yl)-4′,5′-dihydro-7′H-spiro[cyclopropane-1,6′-pyrazolo[1,5-a]pyridine]]
2 | 451 | > 10000 | Cc1cn2nccc2cc1-c1c(-c2ccc(F)cn2)nn2c1COC(C)(C)C2 [Example 382, 2-(5-Fluoro-2-pyridyl)-6,6-dimethyl-3-(6-methylpyrazolo[1,5-a]pyridin-5-yl)-4,7-dihydropyrazolo[5,1-c][1,4]oxazine]
3 | 524 | > 10000 | CCn1ncc2cc(-c3c(-c4ccc(F)cc4)nn4c3COCC4C)cnc21 (stereo not drawn) [Example 370, 3-(1-Ethyl-1H-pyrazolo[3,4-b]pyridin-5-yl)-2-(4-fluorophenyl)-7-methyl-6,7-dihydro-4H-pyrazolo[5,1-c][1,4]oxazine]
4 | 4 | 82 | Cc1cc(-c2c(-c3ccc(F)cn3)nn3c2CCC2C3C2(F)F)c2cn[nH]c2n1 (racemic) [Example 59, (Racemic) 6,6-Difluoro-2-(5-fluoropyridin-2-yl)-3-(6-methyl-1H-pyrazolo[3,4-b]pyridin-4-yl)-5,5a,6,6a-tetrahydro-4H-cyclopropa[e]pyrazolo[1,5-a]pyridine]
5 | 8 | 70 | CC1(C)COc2c(-c3ccn4nccc4c3)c(-c3ccc(F)cn3)nn2C1 [Example 449, 2-(5-Fluoropyridin-2-yl)-6,6-dimethyl-3-(pyrazolo[1,5-a]pyridin-5-yl)-6,7-dihydro-5H-pyrazolo[5,1-b][1,3]oxazine]
6 | 75 | 1050 | CC1(C)COc2c(-c3ccnc4cc[nH]c34)c(-c3ccc(F)cn3)nn2C1 [Example 450, 2-(5-Fluoro-2-pyridyl)-6,6-dimethyl-3-(1H-pyrrolo[3,2-b]pyridin-7-yl)-5,7-dihydropyrazolo[5,1-b][1,3]oxazine]
7 | 3 | 25 | CC1(C)Cn2nc(-c3ccc(F)cn3)c(-c3ccnc4[nH]nc(Br)c34)c2CO1 [Example 152, 3-(3-Bromo-1H-pyrazolo[3,4-b]pyridin-4-yl)-2-(5-fluoropyridin-2-yl)-6,6-dimethyl-6,7-dihydro-4H-pyrazolo[5,1-c][1,4]oxazine]
8 | 6 | 36 | Cc1cc(-c2c(-c3ccc(F)cc3)nn3c2OCC2(C3)CC2(F)F)c2cn[nH]c2n1 (single isomer, unassigned) [Example 475, (*R)-2,2-Difluoro-2′-(4-fluorophenyl)-3′-(6-methyl-1H-pyrazolo[3,4-b]pyridin-4-yl)-5′H,7′H-spiro[cyclopropane-1,6′-pyrazolo[5,1-b][1,3]oxazine]]
9 | 51 | 1770 | Cc1cc(-c2c(-c3ccc(F)cn3)nn3c2OC(C)CC3C)c2cn[nH]c2n1 (single isomer, unassigned) [Example 207, (5*R,7*S)-2-(5-Fluoro-2-pyridyl)-5,7-dimethyl-3-(6-methyl-H-pyrazolo[3,4-b]pyridin-4-yl)-6,7-dihydro-5H-pyrazolo[5,1-b][1,3]oxazine]
10 | 14 | 238 | Fc1cnc(-c2nn3c(c2-c2ccnc4[nH]ncc24)CCCC3)c(F)c1 [Example 38, 4-[2-(3,5-Difluoro-2-pyridyl)-4,5,6,7-tetrahydropyrazolo[1,5-a]pyridin-3-yl]-1H-pyrazolo[3,4-b]pyridine]
11 | 14 | 97 | Fc1ccc(-c2nn3c(c2-c2ccnc4[nH]ncc24)CCC2(C3)CC2(F)F)nc1 (single isomer, unassigned) [Example 327, (*S)-2,2-Difluoro-2′-(5-fluoropyridin-2-yl)-3′-(1H-pyrazolo[3,4-b]pyridin-4-yl)-4′,5′-dihydro-7′H-spiro[cyclopropane-1,6′-pyrazolo[1,5-a]pyridine]]
12 | 1 | 7 | O=C(Nc1cc(-c2c(-c3ccc(F)cn3)nn3c2OCC2(CC2)C3)ccn1)C1CC1 [Example 456, N-(4-(2′-(5-Fluoropyridin-2-yl)-5′H,7′H-spiro[cyclopropane-1,6′-pyrazolo[5,1-b][1,3]oxazin]-3′-yl)pyridin-2-yl)cyclopropanecarboxamide]
13 | 17 | 240 | COCC1CCc2c(-c3cc(C)nc4[nH]ncc34)c(-c3ccc(F)cn3)nn2C1 (single isomer, unassigned) [Example 296, (*S)-4-[2-(5-Fluoro-2-pyridyl)-6-(methoxymethyl)-4,5,6,7-tetrahydropyrazolo[1,5-a]pyridin-3-yl]-6-methyl-1H-pyrazolo[3,4-b]pyridine]
14 | 7 | 79 | Fc1ccc(-c2nn3c(c2-c2ccnc4[nH]ncc24)C[C@@H](F)C3)cc1 [Example 228, 4-[(5R)-5-Fluoro-2-(4-fluorophenyl)-5,6-dihydro-4H-pyrrolo[1,2-b]pyrazol-3-yl]-1H-pyrazolo[3,4-b]pyridine]
15 | 1 | 12 | C[C@H]1CCc2c(-c3ccnc4[nH]ncc34)c(-c3ccc(F)cc3)nn21 [Example 15, 4-[(6S)-2-(4-Fluorophenyl)-6-methyl-5,6-dihydro-4H-pyrrolo[1,2-b]pyrazol-3-yl]-1H-pyrazolo[3,4-b]pyridine]
16 | 75 | 1910 | COC[C@]1(F)CCc2c(-c3ccnc4[nH]ncc34)c(-c3ccc(F)cn3)nn2C1 (single isomer, unassigned) [Example 300, (*S)-4-[6-Fluoro-2-(5-fluoro-2-pyridyl)-6-(methoxymethyl)-5,7-dihydro-4H-pyrazolo[1,5-a]pyridin-3-yl]-1H-pyrazolo[3,4-b]pyridine]
17 | 19 | 836 | COc1ccc2nccc(-c3c(-c4ccc(F)cn4)nn4c3COC(C)(C)C4)c2n1 [Example 168, 2-(5-Fluoropyridin-2-yl)-3-(6-methoxy-1,5-naphthyridin-4-yl)-6,6-dimethyl-6,7-dihydro-4H-pyrazolo[5,1-c][1,4]oxazine]
18 | 29 | 254 | C[C@H]1Cn2nc(-c3ccc(F)cn3)c(-c3ccnc4[nH]ncc34)c2CO1 (single isomer, unassigned) [Example 86, (*S)-2-(5-Fluoro-2-pyridyl)-6-methyl-3-(1H-pyrazolo[3,4-b]pyridin-4-yl)-6,7-dihydro-4H-pyrazolo[5,1-c][1,4]oxazine]
19 | 3 | 21 | C[C@@]1(CF)CCc2c(-c3c(F)cnc4[nH]ncc34)c(-c3ccc(F)cn3)nn2C1 (single isomer, unassigned) [Example 292, (*R)-5-Fluoro-4-[6-(fluoromethyl)-2-(5-fluoro-2-pyridyl)-6-methyl-5,7-dihydro-4H-pyrazolo[1,5-a]pyridin-3-yl]-1H-pyrazolo[3,4-b]pyridine]
20 | 13 | 201 | CC1(C)COCc2c(-c3ccnc4[nH]ncc34)c(-c3ccc(F)cc3)nn21 [Example 120, 2-(4-Fluorophenyl)-7,7-dimethyl-3-(1H-pyrazolo[3,4-b]pyridin-4-yl)-4,6-dihydropyrazolo[5,1-c][1,4]oxazine]
21 | 15 | > 10000 | Fc1ccc(-c2nn3c(c2-c2ccnc4[nH]c(C(F)F)cc24)COCC3)nc1 [Example 75, 3-(2-(Difluoromethyl)-1H-pyrrolo[2,3-b]pyridin-4-yl)-2-(5-fluoropyridin-2-yl)-6,7-dihydro-4H-pyrazolo[5,1-c][1,4]oxazine]
22 | 8 | 75 | Nc1cc(-c2c(-c3ccc(F)cc3)nn3c2CCC(F)(F)C3)ccn1 [Example 41, 4-(6,6-Difluoro-2-(4-fluorophenyl)-4,5,6,7-tetrahydropyrazolo[1,5-a]pyridin-3-yl)pyridin-2-amine]
23 | 1670 | > 10000 | Cc1n[nH]c2ncc(F)c(-c3c(-c4ccc(F)cn4)nn4c3CC[C@H]3[C@@H]4C3(F)F)c12 (single isomer, unassigned) [Example 359, (5a*S,6a*R)-6,6-Difluoro-3-(5-fluoro-3-methyl-1H-pyrazolo[3,4-b]pyridin-4-yl)-2-(5-fluoropyridin-2-yl)-5,5a,6,6a-tetrahydro-4H-cyclopropa[e]pyrazolo[1,5-a]pyridine]
24 | 3 | 20 | Cc1nc(-c2c(-c3ccc(F)cc3)nn3c2COC(C)(C(F)(F)F)C3)c2cn[nH]c2n1 (stereo not drawn) [Example 422, 2-(4-Fluorophenyl)-6-methyl-3-(6-methyl-1H-pyrazolo[3,4-d]pyrimidin-4-yl)-6-(trifluoromethyl)-6,7-dihydro-4H-pyrazolo[5,1-c][1,4]oxazine]
25 | 2 | 3 | Cc1cc(-c2c(-c3ccc(F)cc3)nn3c2C[C@@]2(C3)CC2(F)F)c2cn[nH]c2n1 (single isomer, unassigned) [Example 252, (*S)-1′,1′-Difluoro-2-(4-fluorophenyl)-3-(6-methyl-1H-pyrazolo[3,4-b]pyridin-4-yl)spiro[4,6-dihydropyrrolo[1,2-b]pyrazole-5,2′-cyclopropane]]
26 | 1 | 2 | Cc1cc(-c2c(-c3ccc(F)cc3)nn3c2OCC2(CC2)C3)c2cn[nH]c2n1 [Example 461, 2′-(4-Fluorophenyl)-3′-(6-methyl-1H-pyrazolo[3,4-b]pyridin-4-yl)-5′H,7′H-spiro[cyclopropane-1,6′-pyrazolo[5,1-b][1,3]oxazine]]
27 | 1 | 3 | Fc1ccc(-c2nn3c(c2-c2ccnc4[nH]ncc24)[C@@H]2CC[C@H]3C2)cc1 (single isomer, unassigned) [Example 60, 4*R,7*S)-2-(4-Fluorophenyl)-3-(1H-pyrazolo[3,4-b]pyridin-4-yl)-4,5,6,7-tetrahydro-4,7-methanopyrazolo[1,5-a]pyridine]
